Data reported in article PMC5533298 (Structure (London, England : 1993), 2017).

Tests used:
Test in all cases: absorbance of p-nitrophenol at […] nm
Format in all cases: biochemical
BuGUS = biological target: T1, BuGUS (Bacteroides uniformis, UniProt A0A078SUX9); settings: 800 uM PNPG, optimal pH, 37 C, 50 mM HEPES
T1 sequence (A0A078SUX9 32-886 limits assumed): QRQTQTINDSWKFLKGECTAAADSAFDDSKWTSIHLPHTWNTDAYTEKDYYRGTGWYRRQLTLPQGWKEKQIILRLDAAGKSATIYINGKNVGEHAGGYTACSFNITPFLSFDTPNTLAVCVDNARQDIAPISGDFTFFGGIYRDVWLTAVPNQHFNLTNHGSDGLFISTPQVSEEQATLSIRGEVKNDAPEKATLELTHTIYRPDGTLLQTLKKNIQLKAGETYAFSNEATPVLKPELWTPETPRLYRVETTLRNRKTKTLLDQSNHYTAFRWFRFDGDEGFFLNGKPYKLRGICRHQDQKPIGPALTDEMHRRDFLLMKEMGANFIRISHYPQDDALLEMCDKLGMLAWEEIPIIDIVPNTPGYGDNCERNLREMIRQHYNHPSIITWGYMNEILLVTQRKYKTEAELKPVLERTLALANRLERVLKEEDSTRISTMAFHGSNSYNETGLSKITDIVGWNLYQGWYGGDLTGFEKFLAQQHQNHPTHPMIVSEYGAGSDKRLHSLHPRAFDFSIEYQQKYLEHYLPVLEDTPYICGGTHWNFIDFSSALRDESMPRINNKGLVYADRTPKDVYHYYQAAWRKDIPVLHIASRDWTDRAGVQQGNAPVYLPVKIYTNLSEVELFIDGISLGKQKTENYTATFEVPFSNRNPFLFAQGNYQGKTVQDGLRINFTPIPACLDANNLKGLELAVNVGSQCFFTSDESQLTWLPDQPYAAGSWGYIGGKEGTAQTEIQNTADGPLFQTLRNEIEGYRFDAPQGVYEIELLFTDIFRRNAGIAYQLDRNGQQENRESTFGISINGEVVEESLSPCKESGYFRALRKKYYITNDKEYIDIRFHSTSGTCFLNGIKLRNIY

BdGUS = biological target: T2, BdGUS (Phocaeicola dorei, UniProt Z9QL54SLC8); settings: 800 uM PNPG, optimal pH, 37 C, 50 mM HEPES
T2 sequence (Z9QL54SLC8 25-879): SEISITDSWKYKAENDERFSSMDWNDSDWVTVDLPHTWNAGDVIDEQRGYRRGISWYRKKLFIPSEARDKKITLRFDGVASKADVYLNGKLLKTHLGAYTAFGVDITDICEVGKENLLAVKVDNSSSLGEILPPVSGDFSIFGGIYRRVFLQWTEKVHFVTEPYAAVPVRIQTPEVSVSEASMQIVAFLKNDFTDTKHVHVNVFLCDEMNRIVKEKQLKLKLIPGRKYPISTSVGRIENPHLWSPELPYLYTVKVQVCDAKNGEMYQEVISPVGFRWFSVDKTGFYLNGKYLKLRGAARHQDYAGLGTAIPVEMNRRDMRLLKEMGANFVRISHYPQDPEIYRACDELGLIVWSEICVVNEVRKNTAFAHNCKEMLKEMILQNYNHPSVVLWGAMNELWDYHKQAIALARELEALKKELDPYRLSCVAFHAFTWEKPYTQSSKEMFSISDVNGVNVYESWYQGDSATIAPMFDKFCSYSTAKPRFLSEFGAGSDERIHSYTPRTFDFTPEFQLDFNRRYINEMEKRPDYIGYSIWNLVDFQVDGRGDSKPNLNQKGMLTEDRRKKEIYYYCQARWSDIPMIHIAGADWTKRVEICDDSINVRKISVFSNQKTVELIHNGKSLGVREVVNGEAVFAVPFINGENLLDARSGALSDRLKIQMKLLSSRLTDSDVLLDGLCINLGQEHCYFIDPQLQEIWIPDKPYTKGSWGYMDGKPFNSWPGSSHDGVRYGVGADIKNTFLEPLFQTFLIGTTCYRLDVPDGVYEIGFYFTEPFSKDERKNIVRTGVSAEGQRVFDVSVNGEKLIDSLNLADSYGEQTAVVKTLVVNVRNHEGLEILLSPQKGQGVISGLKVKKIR

BfGUS = BfGUS (Bacteroides fragilis, UniProt Q5LIC7); settings: 800 uM PNPG, optimal pH, 37 C, 50 mM HEPES
PmGUS = biological target: T3, PmGUS (Parabacteroides merdae, UniProt K5ZWV5); settings: 800 uM PNPG, optimal pH, 37 C, 50 mM HEPES
T3 sequence (K5ZWV5 20-826): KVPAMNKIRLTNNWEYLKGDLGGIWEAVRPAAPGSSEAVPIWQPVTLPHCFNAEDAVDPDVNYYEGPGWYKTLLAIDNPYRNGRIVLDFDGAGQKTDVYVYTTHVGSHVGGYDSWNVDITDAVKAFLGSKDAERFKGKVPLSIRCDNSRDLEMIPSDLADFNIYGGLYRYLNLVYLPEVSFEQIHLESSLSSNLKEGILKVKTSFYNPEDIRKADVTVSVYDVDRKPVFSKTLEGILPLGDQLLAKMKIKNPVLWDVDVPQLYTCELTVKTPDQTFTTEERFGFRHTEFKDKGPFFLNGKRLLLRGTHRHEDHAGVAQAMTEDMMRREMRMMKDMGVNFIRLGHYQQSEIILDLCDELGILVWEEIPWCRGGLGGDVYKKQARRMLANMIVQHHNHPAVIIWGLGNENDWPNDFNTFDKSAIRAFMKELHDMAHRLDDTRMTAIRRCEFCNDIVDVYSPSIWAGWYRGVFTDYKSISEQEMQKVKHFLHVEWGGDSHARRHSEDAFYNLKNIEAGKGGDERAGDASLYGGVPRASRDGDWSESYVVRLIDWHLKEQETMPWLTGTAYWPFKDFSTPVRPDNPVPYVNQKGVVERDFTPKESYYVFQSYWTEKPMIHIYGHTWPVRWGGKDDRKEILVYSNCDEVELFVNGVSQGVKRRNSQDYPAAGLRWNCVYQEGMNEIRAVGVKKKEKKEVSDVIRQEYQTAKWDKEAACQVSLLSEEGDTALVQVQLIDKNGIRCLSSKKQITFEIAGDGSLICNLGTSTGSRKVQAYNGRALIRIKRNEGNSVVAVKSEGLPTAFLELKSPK

EeGUS = biological target: T4, EeGUS (Lachnospira eligens, UniProt C4Z6Z2); settings: 800 uM PNPG, pH 6.5, 37 C, 50 mM HEPES
T4 sequence (C4Z6Z2 1-611): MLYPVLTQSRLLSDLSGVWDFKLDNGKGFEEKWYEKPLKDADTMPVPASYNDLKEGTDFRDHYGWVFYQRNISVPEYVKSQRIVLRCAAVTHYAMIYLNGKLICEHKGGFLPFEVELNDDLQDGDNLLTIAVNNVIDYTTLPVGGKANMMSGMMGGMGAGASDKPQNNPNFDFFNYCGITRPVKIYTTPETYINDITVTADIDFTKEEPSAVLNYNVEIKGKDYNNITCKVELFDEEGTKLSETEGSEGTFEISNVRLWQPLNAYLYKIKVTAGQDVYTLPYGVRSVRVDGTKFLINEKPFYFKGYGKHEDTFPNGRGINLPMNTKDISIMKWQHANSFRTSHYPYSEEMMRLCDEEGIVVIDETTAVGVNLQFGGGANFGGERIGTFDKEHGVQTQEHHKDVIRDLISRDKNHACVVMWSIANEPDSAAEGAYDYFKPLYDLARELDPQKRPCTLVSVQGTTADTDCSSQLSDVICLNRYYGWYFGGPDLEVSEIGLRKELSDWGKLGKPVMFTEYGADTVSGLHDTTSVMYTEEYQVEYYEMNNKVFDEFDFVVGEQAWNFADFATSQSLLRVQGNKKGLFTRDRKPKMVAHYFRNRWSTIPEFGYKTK

EcGUS = EcGUS (Escherichia coli, UniProt P05804); settings: 800 uM PNPG, optimal pH (broad, up to 7.4), 37 C, 50 mM HEPES
Sequence of EcGUS (P05804 whole entry): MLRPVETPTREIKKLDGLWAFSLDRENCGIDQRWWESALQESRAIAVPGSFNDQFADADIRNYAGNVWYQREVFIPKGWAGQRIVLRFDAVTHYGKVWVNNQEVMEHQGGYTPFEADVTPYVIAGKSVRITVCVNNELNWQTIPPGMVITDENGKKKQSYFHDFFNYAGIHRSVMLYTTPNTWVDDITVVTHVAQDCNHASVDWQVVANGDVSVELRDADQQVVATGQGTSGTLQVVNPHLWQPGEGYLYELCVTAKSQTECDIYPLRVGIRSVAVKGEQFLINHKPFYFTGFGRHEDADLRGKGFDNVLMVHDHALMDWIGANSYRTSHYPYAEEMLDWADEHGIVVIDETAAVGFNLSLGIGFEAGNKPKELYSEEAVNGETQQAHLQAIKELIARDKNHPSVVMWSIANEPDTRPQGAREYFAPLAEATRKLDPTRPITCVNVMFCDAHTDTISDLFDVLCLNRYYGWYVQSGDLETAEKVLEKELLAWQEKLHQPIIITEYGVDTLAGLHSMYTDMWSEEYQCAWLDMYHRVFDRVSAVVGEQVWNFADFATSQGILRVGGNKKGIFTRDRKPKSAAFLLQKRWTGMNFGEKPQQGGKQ

Sequence of BfGUS (Q5LIC7 38-693): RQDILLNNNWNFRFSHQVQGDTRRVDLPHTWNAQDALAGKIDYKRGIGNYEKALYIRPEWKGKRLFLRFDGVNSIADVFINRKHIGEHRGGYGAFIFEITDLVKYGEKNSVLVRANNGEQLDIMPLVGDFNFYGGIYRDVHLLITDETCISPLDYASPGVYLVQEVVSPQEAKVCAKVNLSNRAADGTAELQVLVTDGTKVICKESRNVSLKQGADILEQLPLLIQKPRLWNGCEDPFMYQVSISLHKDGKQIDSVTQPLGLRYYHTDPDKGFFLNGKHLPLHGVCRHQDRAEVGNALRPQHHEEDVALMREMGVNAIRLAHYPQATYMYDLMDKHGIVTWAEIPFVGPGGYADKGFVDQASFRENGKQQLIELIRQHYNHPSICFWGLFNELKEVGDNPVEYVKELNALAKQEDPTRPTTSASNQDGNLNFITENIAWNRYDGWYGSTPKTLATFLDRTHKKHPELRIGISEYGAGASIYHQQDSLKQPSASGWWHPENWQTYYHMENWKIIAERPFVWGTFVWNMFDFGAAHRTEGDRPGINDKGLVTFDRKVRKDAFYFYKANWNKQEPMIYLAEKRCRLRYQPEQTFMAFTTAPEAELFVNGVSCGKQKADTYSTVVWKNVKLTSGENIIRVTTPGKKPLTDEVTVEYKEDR

Structure (SMILES): O=C(O)[C@H]1O[C@@H](Oc2ccc([N+](=O)[O-])cc2)[C@H](O)[C@@H](O)[C@@H]1O [PNPG]
- absorbance of p-nitrophenol at 410 nm (BuGUS): PNPG kinetic studies with each enzyme at its optimum pH
- absorbance of p-nitrophenol at 410 nm (BdGUS): PNPG kinetic studies with each enzyme at its optimum pH
- absorbance of p-nitrophenol at 410 nm (BfGUS): PNPG kinetic studies with each enzyme at its optimum pH
- absorbance of p-nitrophenol at 410 nm (PmGUS): PNPG kinetic studies with each enzyme at its optimum pH
- absorbance of p-nitrophenol at 410 nm (EeGUS): E. coli and Eu. eligens GUS are remarkably efficient at PNPG processing
- absorbance of p-nitrophenol at 410 nm (EcGUS): E. coli and Eu. eligens GUS are remarkably efficient at PNPG processing
